The values below come from the NIST ThermoML archive (doi:10.1016/j.fluid.2015.07.045).

For series [1] the following is noted: 298.15 K; 101.33 kPa; Liquid; Vibrating tube method.
Series [2] can be described thus: Boiling temperature at pressure P. As to conditions: 101.3 kPa; Liquid; Ebulliometric method (Recirculating still).

Structures are written as SMILES. ± gives the expanded uncertainty stated by the source.

Broadly, the mass density is mass per unit of volume.

Turning to `C[n+]1ccn(Cc2ccccc2)c1.[Cl-]` [1-benzyl-3-methyl-1H-imidazolium chloride], the mass density in series [1] is given as 1192.8 ± 0.6 kg/m3.

On to `COC(C)=O` [methyl ethanoate], for which the mass density in series [1] was 927.3 ± 0.4 kg/m3. In addition, the “Boiling temperature at pressure P” value in series [2] turned out to be 57.1 ± 0.1 °C.

Consider `CCCCCCn1cc[n+](C)c1.[Br-]` [3-hexyl-1-methyl-1H-imidazolium bromide], for which, in series [1], the mass density turned out to be 1229.2 ± 0.6 kg/m3.

Take `CO` [methanol]: the mass density in series [1] is reported as 787.1 ± 0.4 kg/m3. The “Boiling temperature at pressure P” value in series [2] was determined as 64.54 ± 0.1 °C.

On to `CCCCCCn1cc[n+](C)c1.[Cl-]` [1-hexyl-3-methylimidazolium chloride], for which the mass density in series [1] is 1044.3 ± 0.5 kg/m3.
